Results as given in PMC10799935, “Discovery of a peripheral 5HT2A antagonist as a clinical candidate for metabolic dysfunction-associated steatohepatitis” (Nature Communications, 2024).
Where “and” joins values, the source holds several entries; their conditions need not be identical. Equal entries are not always repeated. Values belong to the compound of their own block, whether it stands above or below them.

Legend:
5HT2A = 5HT2A (Homo sapiens, UniProt P28223); experiment: Human 5HT2A inhibition assay (FLIPR calcium 6, 5HT stimulus, stably transfected HEK293 cells); type: cell-based; set-up: expressed in transfected cells; host or cells: HEK293; details: for inhibition at 1 µM: HEK293, 1 μM, read-out: % Inhibition at 1 μM (SD)
Chain of 5HT2A (P28223 whole entry): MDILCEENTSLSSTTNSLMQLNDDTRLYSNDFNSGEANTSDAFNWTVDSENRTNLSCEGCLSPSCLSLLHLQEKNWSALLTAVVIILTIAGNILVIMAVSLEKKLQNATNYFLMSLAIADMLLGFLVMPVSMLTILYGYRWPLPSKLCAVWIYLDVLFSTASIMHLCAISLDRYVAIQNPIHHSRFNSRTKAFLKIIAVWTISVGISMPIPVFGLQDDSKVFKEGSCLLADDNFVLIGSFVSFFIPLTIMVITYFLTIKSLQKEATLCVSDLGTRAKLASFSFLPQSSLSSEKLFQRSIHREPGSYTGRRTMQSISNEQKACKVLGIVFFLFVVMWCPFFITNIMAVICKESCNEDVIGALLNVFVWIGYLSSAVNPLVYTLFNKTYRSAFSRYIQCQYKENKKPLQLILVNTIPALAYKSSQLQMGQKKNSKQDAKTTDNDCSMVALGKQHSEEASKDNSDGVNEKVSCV
Procedure: The derivatives were evaluated at a concentration of 1 μM for their antagonist activity on the 5HT2A receptor (Tables 1–3)[33],[34]. […] The cells were stained with 100 μL of cytosolic calcium dye using the FLIPR calcium 6 assay solution (Molecular devices, #R8190) supplemented with 2.5 mM probenecid (Sigma; P8761) and incubated for 1 h at 37 °C. After 1 h, the designated amount of the compound was treated in each well and incubated for another 1 h at 37 °C. […] Experimental conditions for the 5HT subtypes can be found in the Supporting Information (Supplementary Table 1).

HFD-fed C57BL/6J mice [1] = experiment: DIO mice: liver histology (H&E), NAFLD activity score (steatosis, inflammation, ballooning); type: in vivo, mouse; set-up: key to Steatosis (NAFLD Activity Score), individual animals / Steatosis score, group mean: steatosis score 0-3 (0 <5% to 3 >66% fat accumulation); details: for Ballooning (NAFLD Activity Score), individual animals / Inflammation (NAFLD Activity Score), individual animals / Steatosis (NAFLD Activity Score), individual animals / Total Activity (Total NAFLD Activity Score), individual animals: DIO C57BL/6J mice, one value per animal; for Hepatocyte ballooning score, Mean Diff. (Vehicle vs. treated): Dunnett's multiple comparisons test
Source text: Epididymal, inguinal, and liver were harvested, fixed in 10% (w/v) neutral buffered formalin solution (Sigma-Aldrich), and embedded in paraffin. Five-micron-thick tissue sections were deparaffinized, rehydrated, and stained with hematoxylin and eosin (H&E)[10]. The total NAFLD activity score (NAS) is a widely used measure of grading for steatosis, lobular inflammation, and ballooning. The total NAS ranges from 0-8 and is the sum of unweighted scores for steatosis (0: <5%, 1: 5 ~ 33%, 2: 33 ~ 66%, 3: >66% fat accumulation in the liver), lobular inflammation (0: no foci inflammation in x200 field, 1: <2 foci inflammation, 2: 2 ~ 4 foci inflammation, 3: >4 foci inflammation), and hepatocellular ballooning (0: none, 1: few ballooning cells, 2: prominent ballooning cells). MASH was diagnosed when NAS was >5, while non-MASH was diagnosed when NAS was <4. According to the MASH CRN scoring system, a certified pathologist determined the NAS[39]. The histological scoring was performed blindly, without knowledge of any other information.

HFD-fed C57BL/6J mice [2] = experiment: DIO mice: blood profiling (serum cholesterol, triglyceride); type: in vivo, mouse; details: PO; for Blood Biochemistry CHO, individual animals / Blood Biochemistry TG, individual animals: DIO C57BL/6J mice, one value per animal; for Blood Biochemistry CHO, individual animals: serum total cholesterol; for Blood Biochemistry TG, individual animals: serum; for Serum TG levels, group mean / Serum total cholesterol levels (CHO), group mean: DIO mice
Procedure: Blood samples were obtained by cardiac puncture, and plasma was isolated. Blood profiling was performed by GC Pharma (Green Cross Corporation). Plasma TG and cholesterol were detected with an in vitro enzymatic colorimetric assay (CHOL2 and TRIGL; Roche, Germany) using a Cobas 8000 clinical analyzer with a c702 module (Roche).

HFD-fed C57BL/6J mice [3] = experiment: DIO mice: quantification of hepatic triglyceride; type: in vivo, mouse; details: PO, liver; for Hepatic TG Levels, TG, individual animals / Hepatic TG Levels, TG per protein, individual animals: DIO C57BL/6J mice, one value per animal; for Hepatic TG Levels, TG, individual animals / Hepatic TG Levels, TG, group mean: not normalised; for Hepatic TG Levels, TG per protein, group mean / Hepatic TG Levels, TG, group mean: DIO mice
Procedure: Liver tissues were homogenized in 5% NP-40 using FastPrep-24. To solubilize fat, the homogenates were heated to 95 °C for 5 min and cooled at 23 °C, and repeated. Triglyceride Reagent (Sigma-Aldrich) or DW was added and incubated at 37 °C for 30 min to hydrolyze TG into glycerol. For the colorimetric assay of hydrolyzed TG levels, samples were incubated with Free Glycerol Reagent (Sigma-Aldrich) at 37 °C for 5 min. Differences in absorbance at 540 nm between hydrolyzed or non-hydrolyzed TG were quantified using a glycerol standard (Sigma-Aldrich). […]

[4] = system: lipogenesis-related genes; experiment: DIO mice: qRT-PCR of lipogenesis-related genes in liver; type: in vivo, mouse; details: DIO, PO, fold vs vehicle; for Fasn (Fold), Mean / Htr2a (Fold), Mean / Pparg (Fold), Mean / Srebp1c (Fold), Mean: group mean; for Fasn (Fold) / Htr2a (Fold) / Pparg (Fold) / Srebp1c (Fold): individual mouse
Procedure: Total RNA extractions from harvested tissues were performed using TRIzol according to the manufacturer’s protocol. After TURBO DNase (Invitrogen) treatment, 2 μg of total RNA was used to generate complementary DNA with a High-Capacity cDNA Reverse Transcription Kit (Thermo Fisher Scientific). Quantitative RT-PCR was performed with Fast SYBR Green Master Mix (Thermo Fisher Scientific) and a Viia 7 Real-time PCR System (Thermo Fisher Scientific) according to the manufacturer’s instructions. Gene expression was relatively quantified based on the delta-delta Ct (threshold cycle) method with the beta-actin gene as a reference gene. The sequence of primers can be found in the Supporting Information (Supplementary Table 2).

[5] = DIO mice, PO, 10mpk, mean, 10 mg/kg

SMILES: O=C1Cc2cc(C(=O)CN3CCC(=C4c5ccc(Cl)cc5CCc5cccnc54)CC3)c(Cl)cc2N1 [Compound 8c]
- % Inhibition at 1 μM (SD) (5HT2A): 73.02 ± 0.51%
- inhibition at 1 µM (5HT2A): 73%

- IC50 (5HT2A): 0.0214 µM
- inhibition at 1 µM (5HT2A): 92.2 ± 1.59%
SMILES: O=C1Cc2cc(C(O)CN3CCC(=C4c5ccc(Cl)cc5CCc5cccnc54)CC3)ccc2N1 (centres unmarked) [Compound 9b]

- IC50 (5HT2A): 0.0106 µM
SMILES: Cc1nc2n(c(=O)c1CCN1CCC(=C3c4ccc(Cl)cc4CCc4cccnc43)CC1)CCC[C@@H]2O (single isomer, unassigned) [Compound 22 f]

- % Inhibition at 1 μM (SD) (5HT2A): 94.47 ± 1.53%
SMILES: O=C1Cc2cc(CCN3CCC(=C4c5ccc(Cl)cc5CCc5cccnc54)CC3)c(Cl)cc2N1 [Compound 11a]

- IC50 (5HT2A): 0.0319 µM
- inhibition at 1 µM (5HT2A): 92 ± 1.07%
SMILES: OC(CN1CCC(=C2c3ccc(Cl)cc3CCc3cccnc32)CC1)c1ccc(Br)cc1 (centres unmarked) [Compound 9a]

- IC50 (5HT2A): 0.0814 µM
- inhibition at 1 µM (5HT2A): 83.2 ± 1.98%
SMILES: O=C(CN1CCC(=C2c3ccc(Cl)cc3CCc3cccnc32)CC1)c1ccc(Br)cc1 [Compound 8a]

SMILES: Cc1nc2n(c(=O)c1CCN1CCC(=C3c4ccc(Cl)cc4CCc4cccnc43)CC1)CCCC2O (racemic) [GM106]
- Ballooning (NAFLD Activity Score), individual animals (HFD-fed C57BL/6J mice [1]; PO, 5mpk, 5 mg/kg): 2.00 and 1.00 and 0.00
- Inflammation (NAFLD Activity Score), individual animals (HFD-fed C57BL/6J mice [1]; PO, 5mpk, 5 mg/kg): 2.00 and 1.00
- Steatosis (NAFLD Activity Score), individual animals (HFD-fed C57BL/6J mice [1]; PO, 5mpk, 5 mg/kg): 3.00 and 2.00 and 1.00
- Total Activity (Total NAFLD Activity Score), individual animals (HFD-fed C57BL/6J mice [1]; PO, 5mpk, 5 mg/kg): 7.00 and 5.00 and 3.00 and 6.00 and 2.00 and 4.00
- Ballooning (NAFLD Activity Score), individual animals (HFD-fed C57BL/6J mice [1]; PO, 10mpk, 10 mg/kg): 0.00 and 1.00 and 2.00
- Inflammation (NAFLD Activity Score), individual animals (HFD-fed C57BL/6J mice [1]; PO, 10mpk, 10 mg/kg): 1.00 and 2.00 and 0.00
- Steatosis (NAFLD Activity Score), individual animals (HFD-fed C57BL/6J mice [1]; PO, 10mpk, 10 mg/kg): 0.00 and 1.00
- Total Activity (Total NAFLD Activity Score), individual animals (HFD-fed C57BL/6J mice [1]; PO, 10mpk, 10 mg/kg): 1.00 and 3.00 and 5.00 and 0.00
- Hepatocyte ballooning score, Mean Diff. (Vehicle vs. treated) (HFD-fed C57BL/6J mice [1]; DIO mice, 5mpk): 0.2857
- Hepatocyte ballooning score, Mean Diff. (Vehicle vs. treated) (HFD-fed C57BL/6J mice [1]; DIO mice, 10mpk): 1
- Steatosis score, group mean (HFD-fed C57BL/6J mice [1]; DIO mice, PO, 5mpk, mean, 5 mg/kg): 2.0
- Steatosis score, group mean (HFD-fed C57BL/6J mice [1]; DIO mice, PO, 10mpk, mean): 0.5
- Hepatocyte ballooning score, group mean (HFD-fed C57BL/6J mice [1]; [5]): 1
- Lobular inflammation score, group mean (HFD-fed C57BL/6J mice [1]; [5]): 1.0
- Blood Biochemistry CHO, individual animals (HFD-fed C57BL/6J mice [2]; 5mpk, 5 mg/kg): 245.45 mg/dL and 237.41 mg/dL and 246.17 mg/dL and 215.59 mg/dL and 143.17 mg/dL and 210.2 mg/dL and 246.37 mg/dL
- Blood Biochemistry TG, individual animals (HFD-fed C57BL/6J mice [2]; 5mpk, 5 mg/kg): 80.27 mg/dL and 61.12 mg/dL and 86.84 mg/dL and 48.55 mg/dL and 85.94 mg/dL and 70.5 mg/dL and 70.39 mg/dL
- Blood Biochemistry CHO, individual animals (HFD-fed C57BL/6J mice [2]; 10mpk, 10 mg/kg): 190.51 mg/dL and 195.99 mg/dL and 228.58 mg/dL and 208.99 mg/dL and 197.21 mg/dL and 184.2 mg/dL
- Blood Biochemistry TG, individual animals (HFD-fed C57BL/6J mice [2]; 10mpk, 10 mg/kg): 45.42 mg/dL and 58.97 mg/dL and 70.76 mg/dL and 76.11 mg/dL and 81.65 mg/dL and 74.22 mg/dL
- Serum TG levels, group mean (HFD-fed C57BL/6J mice [2]; 5mpk): 71.94 mg/dL
- Serum total cholesterol levels (CHO), group mean (HFD-fed C57BL/6J mice [2]; 5mpk, 5 mg/kg): 220.62 mg/dL
- Serum TG levels, group mean (HFD-fed C57BL/6J mice [2]; 10mpk): 67.86 mg/dL
- Serum total cholesterol levels (CHO), group mean (HFD-fed C57BL/6J mice [2]; 10mpk, 10 mg/kg): 200.91 mg/dL
- Hepatic TG Levels, TG, individual animals (HFD-fed C57BL/6J mice [3]; 5mpk, 5 mg/kg): 0.07575 mg/mL and 0.09502 mg/mL and 0.09001 mg/mL and 0.07002 mg/mL and 0.1053 mg/mL and 0.1094 mg/mL and 0.1015 mg/mL
- Hepatic TG Levels, TG per protein, individual animals (HFD-fed C57BL/6J mice [3]; 5mpk, 5 mg/kg): 71.5854 mg/g protein and 74.7025 mg/g protein and 51.6625 mg/g protein and 103.84 mg/g protein and 123.461 mg/g protein and 75.9936 mg/g protein and 58.3099 mg/g protein
- Hepatic TG Levels, TG, individual animals (HFD-fed C57BL/6J mice [3]; 10mpk, 10 mg/kg): 0.06336 mg/mL and 0.0751 mg/mL and 0.08726 mg/mL and 0.101 mg/mL and 0.08773 mg/mL and 0.06215 mg/mL
- Hepatic TG Levels, TG per protein, individual animals (HFD-fed C57BL/6J mice [3]; 10mpk, 10 mg/kg): 41.8429 mg/g protein and 54.7941 mg/g protein and 65.6095 mg/g protein and 56.3849 mg/g protein and 74.0866 mg/g protein and 34.3504 mg/g protein
- Hepatic TG Levels, TG per protein, group mean (HFD-fed C57BL/6J mice [3]; 5mpk): 79.94 mg/g protein
- Hepatic TG Levels, TG, group mean (HFD-fed C57BL/6J mice [3]; 5mpk): 0.09 mg/mL
- Hepatic TG Levels, TG per protein, group mean (HFD-fed C57BL/6J mice [3]; 10mpk): 54.51 mg/g protein
- Hepatic TG Levels, TG, group mean (HFD-fed C57BL/6J mice [3]; 10mpk): 0.08 mg/mL
- Fasn (Fold), Mean ([4]; 5mpk, 7 mice): 0.745
- Htr2a (Fold), Mean ([4]; 5mpk, 7 mice): 0.510
- Pparg (Fold), Mean ([4]; 5mpk, 7 mice): 0.893
- Srebp1c (Fold), Mean ([4]; 5mpk, 7 mice): 0.768
- Fasn (Fold) ([4]; 5mpk, 5 mg/kg): 0.6490 and 1.2211 and 0.8546 and 0.7608 and 0.3082 and 0.7010 and 0.7176
- Htr2a (Fold) ([4]; 5mpk, 5 mg/kg): 0.4721 and 0.7255 and 0.4948 and 0.4297 and 0.7599 and 0.2475 and 0.4420
- Pparg (Fold) ([4]; 5mpk, 5 mg/kg): 0.9158 and 1.2274 and 0.7611 and 0.5677 and 1.3805 and 0.7174 and 0.6847
- Srebp1c (Fold) ([4]; 5mpk, 5 mg/kg): 0.9242 and 0.7728 and 0.8708 and 0.7607 and 0.6589 and 0.3460 and 1.0400
- Fasn (Fold), Mean ([4]; 10mpk, 6 mice): 0.560
- Htr2a (Fold), Mean ([4]; 10mpk, 6 mice): 0.414
- Pparg (Fold), Mean ([4]; 10mpk, 6 mice): 1.032
- Srebp1c (Fold), Mean ([4]; 10mpk, 6 mice): 0.496
- Fasn (Fold) ([4]; 10mpk, 10 mg/kg): 0.3894 and 0.5870 and 0.6740 and 0.7101 and 0.3290 and 0.6694
- Htr2a (Fold) ([4]; 10mpk, 10 mg/kg): 0.4677 and 0.2891 and 0.2762 and 0.4976 and 0.4041 and 0.5480
- Pparg (Fold) ([4]; 10mpk, 10 mg/kg): 0.7506 and 1.1267 and 1.0050 and 0.9956 and 1.2727 and 1.0412
- Srebp1c (Fold) ([4]; 10mpk, 10 mg/kg): 0.4795 and 0.5418 and 0.5388 and 0.5056 and 0.4290 and 0.4815
